# Experimental data published in ChEMBL document CHEMBL5465560, “Selectivity Literature for EUbOPEN Chemogenomic Library” (2024).
# Experiments:
# [1] = target: Mitogen-activated protein kinase kinase kinase 4 (Homo sapiens) (UniProt Q9Y6R4); details: at 10 µM
# [2] = target: Ephrin type-A receptor 5 (Homo sapiens) (UniProt P54756); assay: Selectivity interaction (Ambit KINOMEscan and KiNATiv profiling in Jurkat cells) EUB0000090b EPHA5; type: cell-based; details: at 1 µM
# [3] = target: Ribosomal protein S6 kinase alpha-1 (Homo sapiens, UniProt Q15418); assay: Selectivity interaction (Kinase panel (literature)) EUB0001199aCl RPS6KA1; details: at 1 µM
# [4] = target: Tyrosine-protein kinase CSK (Homo sapiens) (UniProt P41240); assay: Selectivity interaction (KinomeScan (DiscoverX)) EUB0001079a CSK; details: at 1 µM
# [5] = target: Angiopoietin-1 receptor (Homo sapiens) (UniProt Q02763); assay: Selectivity interaction (Millipore kinase profiler) EUB0000124b TEK; details: at 10 µM
# [6] = target: T1, Serine/threonine-protein kinase Chk1 (Homo sapiens) (UniProt O14757); assay: Selectivity interaction (KinomeScan (DiscoverX)) EUB0001619a CHEK1; details: at 1 µM
# T1 sequence (whole entry): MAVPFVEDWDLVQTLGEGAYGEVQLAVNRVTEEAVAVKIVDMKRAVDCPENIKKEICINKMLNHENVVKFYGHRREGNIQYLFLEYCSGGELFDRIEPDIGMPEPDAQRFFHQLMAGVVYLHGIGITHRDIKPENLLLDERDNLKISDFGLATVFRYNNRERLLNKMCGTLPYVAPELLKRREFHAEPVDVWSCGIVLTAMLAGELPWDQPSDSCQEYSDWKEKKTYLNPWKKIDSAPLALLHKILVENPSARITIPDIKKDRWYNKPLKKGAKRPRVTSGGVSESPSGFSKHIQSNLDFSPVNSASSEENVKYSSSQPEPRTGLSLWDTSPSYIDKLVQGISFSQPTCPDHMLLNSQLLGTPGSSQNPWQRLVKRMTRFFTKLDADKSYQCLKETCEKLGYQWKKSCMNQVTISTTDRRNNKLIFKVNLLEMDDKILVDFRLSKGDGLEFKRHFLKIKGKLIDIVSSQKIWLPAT
# [7] = target: T2, Dual specificity tyrosine-phosphorylation-regulated kinase 2 (Homo sapiens) (UniProt Q92630); assay: Selectivity interaction (Kinase panel (DSF assay)) EUB0001558a DYRK2
# T2 sequence (whole entry): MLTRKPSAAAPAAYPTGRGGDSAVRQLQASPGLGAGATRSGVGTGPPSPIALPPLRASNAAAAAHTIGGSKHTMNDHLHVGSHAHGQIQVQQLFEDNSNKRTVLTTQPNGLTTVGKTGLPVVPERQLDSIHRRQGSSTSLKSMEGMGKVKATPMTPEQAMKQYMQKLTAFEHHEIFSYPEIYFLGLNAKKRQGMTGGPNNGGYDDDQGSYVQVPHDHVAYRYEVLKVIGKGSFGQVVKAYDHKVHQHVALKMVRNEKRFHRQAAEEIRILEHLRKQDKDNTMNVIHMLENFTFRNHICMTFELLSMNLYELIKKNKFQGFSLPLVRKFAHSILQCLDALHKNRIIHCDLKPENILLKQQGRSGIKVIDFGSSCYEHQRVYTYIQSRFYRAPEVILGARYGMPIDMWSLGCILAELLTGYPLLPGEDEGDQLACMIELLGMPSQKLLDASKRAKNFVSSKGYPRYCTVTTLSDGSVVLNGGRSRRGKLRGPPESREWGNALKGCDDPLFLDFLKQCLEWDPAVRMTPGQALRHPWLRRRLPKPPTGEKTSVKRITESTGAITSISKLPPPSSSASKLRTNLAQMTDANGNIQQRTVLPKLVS
# [8] = target: RAC-beta serine/threonine-protein kinase (Homo sapiens) (UniProt P31751); assay: Selectivity interaction (Upstate Kinase Profiler service (Millipore)) EUB0000056c AKT2; details: at 1 µM
# [9] = target: T3, Scaffold protein ILK (Homo sapiens) (UniProt Q13418); assay: Selectivity interaction (Kinase panel (KiNativ target engagement assay in Jurkat cells)) EUB0001635a ILK; type: cell-based; details: Selectivity number of off-targets 0.0, Selectivity number of targets 233.0, Source Knowledge https://www.sciencedirect.com/science/article/pii/S2451945619300674?via%3Dihub, at 1 µM
# T3 sequence (whole entry): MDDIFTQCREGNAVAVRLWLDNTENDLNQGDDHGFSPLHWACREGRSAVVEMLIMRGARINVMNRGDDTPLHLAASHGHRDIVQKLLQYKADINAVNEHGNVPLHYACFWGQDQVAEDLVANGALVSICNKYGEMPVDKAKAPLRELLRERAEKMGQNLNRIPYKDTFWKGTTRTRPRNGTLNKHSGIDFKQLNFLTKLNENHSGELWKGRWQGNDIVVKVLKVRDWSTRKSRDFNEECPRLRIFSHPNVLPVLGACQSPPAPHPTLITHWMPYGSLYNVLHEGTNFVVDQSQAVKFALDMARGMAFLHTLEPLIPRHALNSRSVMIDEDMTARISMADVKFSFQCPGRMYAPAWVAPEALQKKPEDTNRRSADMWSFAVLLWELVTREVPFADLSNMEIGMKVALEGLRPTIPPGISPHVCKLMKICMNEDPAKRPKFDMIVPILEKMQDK
# [10] = target: Casein kinase I isoform gamma-2 (Homo sapiens) (UniProt P78368); assay: Selectivity interaction (ProQinase) EUB0000171b CSNK1G2
# [11] = target: Casein kinase II subunit alpha' (Homo sapiens) (UniProt P19784); assay: Selectivity interaction (ProQinase) EUB0000171b CSNK2A2
# [12] = target: Cyclin-dependent kinase-like 3 (Homo sapiens) (UniProt Q8IVW4); assay: Selectivity interaction (KinomeScan (DiscoverX)) EUB0001049a CDKL3; details: at 1 µM
# [13] = target: Serine/threonine-protein kinase PAK 6 (Homo sapiens) (UniProt Q9NQU5); assay: Selectivity interaction (KinomeScan (DiscoverX)) EUB0000666a PAK6; details: at 10 µM
# [14] = test system: Epidermal growth factor receptor (Homo sapiens), P00533 [UNDEFINED MUTATION]; assay: Selectivity interaction (KinomeScan (DiscoverX)) EUB0000092b EGFR; details: at 10 µM
# [15] = target: 5-hydroxytryptamine receptor 2B (Homo sapiens, UniProt P41595); assay: Selectivity interaction (GPCR panel (PDSP screen)) EUB0000311b HTR2B; details: at 10 µM
# [16] = target: Platelet-derived growth factor receptor alpha (Homo sapiens, UniProt P16234); assay: Selectivity interaction (KinomeScan (DiscoverX)) EUB0000695a PDGFRA; details: at 100 nM
# Casein kinase II subunit alpha' (Homo sapiens), sequence (P19784 whole entry, looked up): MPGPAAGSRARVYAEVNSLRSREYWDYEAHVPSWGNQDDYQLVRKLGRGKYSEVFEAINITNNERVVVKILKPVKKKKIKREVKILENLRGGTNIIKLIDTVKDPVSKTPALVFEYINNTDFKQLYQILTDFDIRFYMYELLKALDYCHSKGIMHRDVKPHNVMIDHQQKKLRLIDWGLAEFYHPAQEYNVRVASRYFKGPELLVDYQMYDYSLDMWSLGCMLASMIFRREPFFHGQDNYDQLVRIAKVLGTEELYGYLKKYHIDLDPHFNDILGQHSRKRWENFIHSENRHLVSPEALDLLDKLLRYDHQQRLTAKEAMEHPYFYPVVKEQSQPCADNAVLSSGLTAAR
# Casein kinase I isoform gamma-2 (Homo sapiens), sequence (P78368 whole entry, looked up, canonical isoform): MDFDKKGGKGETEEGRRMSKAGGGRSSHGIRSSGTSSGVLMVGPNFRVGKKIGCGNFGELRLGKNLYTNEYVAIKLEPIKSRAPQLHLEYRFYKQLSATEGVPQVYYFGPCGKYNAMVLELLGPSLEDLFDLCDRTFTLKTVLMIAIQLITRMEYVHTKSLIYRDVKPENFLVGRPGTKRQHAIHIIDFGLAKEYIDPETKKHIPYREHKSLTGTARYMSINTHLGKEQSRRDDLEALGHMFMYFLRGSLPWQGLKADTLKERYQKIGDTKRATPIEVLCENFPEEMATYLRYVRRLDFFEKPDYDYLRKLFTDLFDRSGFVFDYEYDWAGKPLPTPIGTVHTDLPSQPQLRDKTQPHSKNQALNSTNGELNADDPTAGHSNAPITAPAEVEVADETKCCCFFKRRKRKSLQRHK
# Serine/threonine-protein kinase PAK 6 (Homo sapiens), sequence (Q9NQU5 whole entry, looked up): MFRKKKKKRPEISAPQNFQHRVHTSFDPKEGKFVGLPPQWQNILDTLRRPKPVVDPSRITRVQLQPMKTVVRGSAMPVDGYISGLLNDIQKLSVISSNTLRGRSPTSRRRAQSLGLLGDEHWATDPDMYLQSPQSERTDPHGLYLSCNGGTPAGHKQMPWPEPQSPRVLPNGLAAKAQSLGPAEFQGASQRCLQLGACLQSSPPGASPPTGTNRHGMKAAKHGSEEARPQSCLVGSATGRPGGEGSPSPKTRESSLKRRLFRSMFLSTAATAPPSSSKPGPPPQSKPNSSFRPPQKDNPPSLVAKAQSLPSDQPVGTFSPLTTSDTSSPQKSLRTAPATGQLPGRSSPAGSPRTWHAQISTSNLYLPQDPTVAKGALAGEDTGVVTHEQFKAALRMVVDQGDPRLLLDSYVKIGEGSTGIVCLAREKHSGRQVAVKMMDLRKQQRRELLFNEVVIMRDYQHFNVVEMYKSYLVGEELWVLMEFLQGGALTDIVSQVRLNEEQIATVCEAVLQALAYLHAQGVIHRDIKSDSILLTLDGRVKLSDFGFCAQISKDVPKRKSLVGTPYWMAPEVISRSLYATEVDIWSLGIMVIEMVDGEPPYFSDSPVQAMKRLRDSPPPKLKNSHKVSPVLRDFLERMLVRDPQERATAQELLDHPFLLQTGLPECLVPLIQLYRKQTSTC
# Epidermal growth factor receptor (Homo sapiens), P00533 [UNDEFINED MUTATION], sequence (P00533 whole entry, looked up, change not shown): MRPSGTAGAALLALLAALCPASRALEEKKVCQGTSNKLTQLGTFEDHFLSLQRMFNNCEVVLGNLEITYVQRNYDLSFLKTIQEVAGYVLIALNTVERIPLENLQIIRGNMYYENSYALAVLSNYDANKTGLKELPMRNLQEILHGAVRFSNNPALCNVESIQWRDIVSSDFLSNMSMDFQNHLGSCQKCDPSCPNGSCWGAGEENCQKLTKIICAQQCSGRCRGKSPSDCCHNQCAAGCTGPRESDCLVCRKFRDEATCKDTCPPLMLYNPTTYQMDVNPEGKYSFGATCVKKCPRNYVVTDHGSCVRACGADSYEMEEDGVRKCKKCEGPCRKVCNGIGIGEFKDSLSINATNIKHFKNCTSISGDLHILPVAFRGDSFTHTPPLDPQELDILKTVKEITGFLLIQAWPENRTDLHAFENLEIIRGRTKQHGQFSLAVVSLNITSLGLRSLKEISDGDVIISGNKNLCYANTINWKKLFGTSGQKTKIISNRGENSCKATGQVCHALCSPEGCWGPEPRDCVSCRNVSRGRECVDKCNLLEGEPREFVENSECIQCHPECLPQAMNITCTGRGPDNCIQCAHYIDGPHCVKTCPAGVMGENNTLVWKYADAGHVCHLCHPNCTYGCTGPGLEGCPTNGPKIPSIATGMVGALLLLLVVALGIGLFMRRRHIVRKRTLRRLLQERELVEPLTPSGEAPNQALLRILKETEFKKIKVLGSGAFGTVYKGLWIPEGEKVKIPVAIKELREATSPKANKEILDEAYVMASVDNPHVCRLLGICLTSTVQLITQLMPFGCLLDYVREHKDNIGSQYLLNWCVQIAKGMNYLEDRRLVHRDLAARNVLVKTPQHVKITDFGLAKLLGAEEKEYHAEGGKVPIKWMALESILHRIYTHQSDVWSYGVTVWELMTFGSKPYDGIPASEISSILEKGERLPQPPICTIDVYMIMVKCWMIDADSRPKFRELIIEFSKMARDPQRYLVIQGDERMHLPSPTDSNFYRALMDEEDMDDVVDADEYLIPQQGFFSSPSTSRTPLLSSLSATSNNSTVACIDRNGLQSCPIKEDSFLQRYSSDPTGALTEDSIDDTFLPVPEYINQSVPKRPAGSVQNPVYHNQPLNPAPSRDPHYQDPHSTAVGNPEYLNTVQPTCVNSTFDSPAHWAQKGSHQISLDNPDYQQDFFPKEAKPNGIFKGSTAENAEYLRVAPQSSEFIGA
# RAC-beta serine/threonine-protein kinase (Homo sapiens), sequence (P31751 whole entry): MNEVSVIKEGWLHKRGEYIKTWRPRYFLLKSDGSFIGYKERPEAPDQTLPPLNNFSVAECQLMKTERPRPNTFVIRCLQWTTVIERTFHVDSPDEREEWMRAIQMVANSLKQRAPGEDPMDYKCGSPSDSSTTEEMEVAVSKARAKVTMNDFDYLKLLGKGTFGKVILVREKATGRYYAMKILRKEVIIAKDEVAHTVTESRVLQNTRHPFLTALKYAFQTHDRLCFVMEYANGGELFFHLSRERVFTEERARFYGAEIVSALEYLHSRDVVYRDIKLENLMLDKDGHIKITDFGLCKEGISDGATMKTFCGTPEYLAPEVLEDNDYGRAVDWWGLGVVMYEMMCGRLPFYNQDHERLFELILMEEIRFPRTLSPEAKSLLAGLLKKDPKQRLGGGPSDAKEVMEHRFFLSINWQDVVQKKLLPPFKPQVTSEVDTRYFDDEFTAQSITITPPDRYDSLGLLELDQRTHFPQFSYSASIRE
# Ephrin type-A receptor 5 (Homo sapiens), sequence (P54756 whole entry): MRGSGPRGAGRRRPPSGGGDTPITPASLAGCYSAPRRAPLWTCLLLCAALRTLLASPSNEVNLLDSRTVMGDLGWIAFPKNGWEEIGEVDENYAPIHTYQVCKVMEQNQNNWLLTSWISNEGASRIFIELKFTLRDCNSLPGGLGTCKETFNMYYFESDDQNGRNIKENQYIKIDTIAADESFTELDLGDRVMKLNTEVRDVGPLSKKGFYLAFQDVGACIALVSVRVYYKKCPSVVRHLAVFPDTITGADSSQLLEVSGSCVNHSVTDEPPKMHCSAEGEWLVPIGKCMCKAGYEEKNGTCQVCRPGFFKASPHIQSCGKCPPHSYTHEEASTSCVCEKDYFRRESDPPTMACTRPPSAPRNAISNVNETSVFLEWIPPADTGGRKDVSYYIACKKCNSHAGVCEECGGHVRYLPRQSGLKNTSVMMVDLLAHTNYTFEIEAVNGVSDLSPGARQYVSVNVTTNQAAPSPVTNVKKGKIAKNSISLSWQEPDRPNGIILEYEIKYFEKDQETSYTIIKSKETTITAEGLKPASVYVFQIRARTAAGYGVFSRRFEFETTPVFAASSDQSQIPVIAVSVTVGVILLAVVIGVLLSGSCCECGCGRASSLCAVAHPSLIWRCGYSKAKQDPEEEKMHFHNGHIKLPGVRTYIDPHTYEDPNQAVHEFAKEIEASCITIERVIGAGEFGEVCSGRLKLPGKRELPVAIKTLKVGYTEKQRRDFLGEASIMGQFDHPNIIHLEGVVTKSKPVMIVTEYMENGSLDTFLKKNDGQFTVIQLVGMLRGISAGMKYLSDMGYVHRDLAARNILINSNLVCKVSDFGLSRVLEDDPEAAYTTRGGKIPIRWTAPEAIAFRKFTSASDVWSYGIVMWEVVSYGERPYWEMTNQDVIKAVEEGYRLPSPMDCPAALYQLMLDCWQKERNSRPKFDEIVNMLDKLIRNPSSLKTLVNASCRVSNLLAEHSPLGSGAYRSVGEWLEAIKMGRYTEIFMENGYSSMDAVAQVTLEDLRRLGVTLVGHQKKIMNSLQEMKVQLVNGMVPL
# Cyclin-dependent kinase-like 3 (Homo sapiens), sequence (Q8IVW4 whole entry, looked up): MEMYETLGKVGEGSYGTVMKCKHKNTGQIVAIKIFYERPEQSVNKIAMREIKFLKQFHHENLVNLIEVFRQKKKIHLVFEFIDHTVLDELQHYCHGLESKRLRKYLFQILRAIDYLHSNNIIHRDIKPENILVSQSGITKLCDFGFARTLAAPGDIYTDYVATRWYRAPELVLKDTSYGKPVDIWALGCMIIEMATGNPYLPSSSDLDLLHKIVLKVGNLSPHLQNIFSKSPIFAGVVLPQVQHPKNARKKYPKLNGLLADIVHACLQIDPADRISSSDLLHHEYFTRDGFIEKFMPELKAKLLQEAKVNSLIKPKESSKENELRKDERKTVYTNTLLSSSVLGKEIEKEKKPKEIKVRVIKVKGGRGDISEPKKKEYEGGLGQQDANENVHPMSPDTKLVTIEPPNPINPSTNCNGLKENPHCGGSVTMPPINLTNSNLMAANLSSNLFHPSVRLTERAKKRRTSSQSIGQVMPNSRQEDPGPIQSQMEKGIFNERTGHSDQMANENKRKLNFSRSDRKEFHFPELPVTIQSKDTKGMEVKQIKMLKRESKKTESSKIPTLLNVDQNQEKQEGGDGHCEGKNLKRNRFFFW
smiles,measurement,setting,value
CCN(CC)CCCCNc1ncc2cc(-c3cc(OC)cc(OC)c3)c(NC(=O)NC(C)(C)C)nc2n1,% of control,[1],100%
CN(C)C/C=C/C(=O)Nc1ccc(C(=O)N2CCCC(Nc3ncc(Cl)c(-c4c[nH]c5ccccc45)n3)C2)cc1 (stereo not drawn),% of control,[2],89%
CN1Cc2nccc(-c3cn(C)nc3-c3ccc(F)cc3)c2C1=O,% of inhibition,[3],18%
Nc1cnc(N2CCc3cc(S(=O)(=O)Nc4c(F)cc(Cl)cc4F)cc(N4CCCC4=O)c32)nc1 [TP-020n],% of control,[4],99%
CC(=O)Nc1cccc(-n2c(=O)n(C3CC3)c(=O)c3c(Nc4ccc(I)cc4F)n(C)c(=O)c(C)c32)c1,% of control,[5],103%
N#Cc1cccc(-c2c[nH]c3ncnc(N4CCOCC4)c23)c1,% of control,[6],94%
CC(C)(O)[C@H](F)CN1Cc2cc(NC(=O)c3cnn4cccnc34)c(N3CCOCC3)cc2C1=O,dTM,[7],5 K
Cc1ccc(-c2ccc3c(ccc4sc5c(c43)NC[C@@H](C)NC5=O)n2)cn1,% of inhibition,[8],-9%
C=CC(=O)Nc1ccc(C(=O)Nc2[nH]nc3c2CN(C(=O)N[C@H](CN(C)C)c2ccccc2)C3(C)C)cc1,% of engagement,[9],-11.5%
C=CC(=O)Nc1cccc(C(=O)Nc2ccc(Nc3cc(-c4[nH]c(SC)nc4C)ccn3)cc2)c1,% of control,[10]; at 1 µM,22%
same,% of control,[10]; at 5 µM,5%
same,% of control,[11]; at 1 µM,80%
same,% of control,[11]; at 5 µM,52%
COc1cc(Nc2nc(C)cc(-c3cnn4nc(OC)ccc34)n2)cc(C(F)(F)F)c1,% of control,[12],94%
O=C(NOC[C@H](O)CO)c1ccc(F)c(F)c1Nc1ccc(I)cc1F,% of control,[13],100%
CCC(=O)N1CCN(c2ccc(-n3c(=O)ccc4cnc5ccc(-c6cnc7ccccc7c6)cc5c43)cc2C(F)(F)F)CC1,% of control,[14],84%
CCc1ccccc1C(=O)Nc1n[nH]c2c(C)c(F)c(C3C(C#N)=C(C)N(C)C(C)=C3C#N)cc12 [BAY-3827],% of inhibition,[15],32.5%
Cc1cc(F)c(C(=O)Nc2cccc(-c3nncn3C(C)C)n2)cc1-n1cnc(C2CC2)c1,% of control,[16],100%
